Data published in US20060079453A1, “Hla binding peptides and their uses” (priority 2002, published 2006).
Read-outs that look alike come from different tables or passages of the source. No end group written: not given here.

Tests used:
Experiment in all cases: biochemical
Format in all cases: binding
HLA-DR DRB1*1101 (DR11) = HLA-DR DRB1*1101 (DR11) (Homo sapiens, UniProt P01903+P01911, A100R/A169T/A87E/I96F/K41T/L162R/M171V/P40S/Q125H/Q178H/Q39Y/Q99D/R42S/S66Y/T262R/V115G/W38E)
HLA-DR DRB1*0401 (DR4) = HLA-DR DRB1*0401 (DR4) (Homo sapiens, UniProt P01903+P01911, A100K/A169T/F76Y/I96L/K127E/L162R/M171V/N62H/P40V/Q125Y/R42H/S133A/S149N/S66Y/V115G/V209L/W38E); details: DRB1 *0401
HLA-DR DRB1*0301 (DR3) = HLA-DR DRB1*0301 (DR3) (Homo sapiens, UniProt P01903+P01911, A100K/A102G/A103R/A169T/F55Y/I96L/K41T/L162R/M171V/P40S/Q125H/Q178H/Q39Y/R42S/S66N/T106N/T262R/W38E/Y61H)
HLA-DR DRB1*1501 (DR15) = HLA-DR DRB1*1501 (DR15) (Homo sapiens, UniProt P01903+P01911)
HLA-DR DRB4*0101 (DR53) = HLA-DR DRB4*0101 (DR53) (Homo sapiens, UniProt P01903+P13762, G164S)
HLA-DR DRB5*0101 (DR51) = HLA-DR DRB5*0101 (DR51) (Homo sapiens, UniProt P01903+Q30154)
HLA-DR DRB3*0101 (DR52) = HLA-DR DRB3*0101 (DR52) (Homo sapiens, UniProt P01903+P79483)
HLA-DR DRB1*0901 (DR9) = HLA-DR DRB1*0901 (DR9) (Homo sapiens, UniProt P01903+P01911, A100R/A103E/D57H/D86V/F55Y/F60I/F76Y/I96F/K127E/L162R/M171V/P40D/Q125H/Q99R/R33Q/R42F/S133A/S66N/T210M/V115G/W38K/Y107V/Y59G/Y89S); details: DRB1 *0901
HLA-DR DRB1*1302 (DR13) = HLA-DR DRB1*1302 (DR13) (Homo sapiens, UniProt P01903+P01911, A100E/A169T/K41T/L162R/M171V/P40S/Q125H/Q178H/Q39Y/Q99D/R42S/S66N/T262R/V115G/W38E/Y61H)
HLA-DR DRB1*0701 (DR7) = HLA-DR DRB1*0701 (DR7) (Homo sapiens, UniProt P01903+P01911, A100R/A102G/A103Q/D57E/D86V/E43K/F76Y/K127E/L162R/M171V/P40G/Q125H/Q99D/R33Q/R42Y/R54Q/S133A/S66F/T210M/V115G/Y107V/Y59L/Y89S)
HLA-DR DRB1*0101 (DR1) = HLA-DR DRB1*0101 (DR1) (Homo sapiens, UniProt P01903+P01911, A100R/D57E/F55L/F60I/F76Y/I96L/L162R/M171V/P40L/Q125E/R42F/V115G/Y59C)

Sequence of HLA-DR DRB1*0301 (DR3) (P01903 26-254 limits assumed, other chains not shown): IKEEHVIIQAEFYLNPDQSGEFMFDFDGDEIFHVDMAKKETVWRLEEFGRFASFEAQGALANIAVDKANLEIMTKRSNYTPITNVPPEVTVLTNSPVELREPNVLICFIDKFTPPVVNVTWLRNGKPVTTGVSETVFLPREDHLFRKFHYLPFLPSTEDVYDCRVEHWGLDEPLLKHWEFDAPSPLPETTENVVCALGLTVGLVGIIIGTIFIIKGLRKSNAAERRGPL
Sequence of HLA-DR DRB1*1302 (DR13) (P01903 26-254 limits assumed, other chains not shown): as above
Sequence of HLA-DR DRB1*1101 (DR11) (P01903 26-254 limits assumed, other chains not shown): as above

Compound	IC50 (HLA-DR DRB1*1101 (DR11); DRB1 *1101) [µM]	IC50 (HLA-DR DRB1*0401 (DR4)) [µM]	IC50 (HLA-DR DRB1*0301 (DR3)) [µM]	IC50 (HLA-DR DRB1*1501 (DR15); DRBI *1501) [µM]	IC50 (HLA-DR DRB4*0101 (DR53); DRB4 *0101) [µM]	IC50 (HLA-DR DRB5*0101 (DR51); DRB5 *0101) [µM]	IC50 (HLA-DR DRB3*0101 (DR52)) [µM]	IC50 (HLA-DR DRB1*0901 (DR9)) [µM]	IC50 (HLA-DR DRB1*1302 (DR13); DRBI *1302) [µM]	IC50 (HLA-DR DRB1*0701 (DR7); DRB1 *0701) [µM]	IC50 (HLA-DR DRB1*0101 (DR1); DRB1 *0101) [µM]	IC50 (HLA-DR DRB1*1101 (DR11)) [µM]	IC50 (HLA-DR DRB1*1302 (DR13)) [µM]	IC50 (HLA-DR DRB1*1501 (DR15)) [µM]	IC50 (HLA-DR DRB1*0701 (DR7)) [µM]	IC50 (HLA-DR DRB4*0101 (DR53)) [µM]	IC50 (HLA-DR DRB1*0101 (DR1)) [µM]	IC50 (HLA-DR DRB5*0101 (DR51)) [µM]
QKGRGYRGQHQAHSLERVCH	30.2	0.088	> 47.4	> 9.1	18	9.76	> 500											
CSCC[C@H](NC(=O)[C@H](CC(=O)O)NC(=O)[C@H](Cc1ccc(O)cc1)NC(=O)[C@H](CC(C)C)NC(=O)[C@@H]1CCCN1C(=O)[C@H](Cc1c[nH]cn1)NC(=O)[C@@H]1CCCN1C(=O)[C@H](Cc1ccccc1)NC(=O)[C@H](CO)NC(=O)[C@H](Cc1c[nH]cn1)NC(=O)[C@H](CO)NC(=O)[C@@H](NC(=O)[C@H](CCC(N)=O)NC(=O)[C@H](Cc1ccccc1)NC(=O)[C@@H](N)C(C)C)C(C)C)C(=O)O		0.025	> 75	2.4	> 12.5		23.4	0.017	0.083	0.051	0.016							
CC(C)C[C@H](NC(=O)CNC(=O)[C@H](CC(N)=O)NC(=O)[C@H](Cc1ccc(O)cc1)NC(=O)[C@@H](NC(=O)[C@H](CC(=O)O)NC(=O)[C@H](CC(C)C)NC(=O)[C@H](C)N)C(C)C)C(=O)N[C@@H](CC(C)C)C(=O)N1CCC[C@H]1C(=O)N1CCC[C@H]1C(=O)N[C@@H](Cc1ccc(O)cc1)C(=O)N[C@@H](C)C(=O)N[C@@H](CO)C(=O)N[C@@H](CS)C(=O)O		0.485		1.09	> 10.1	115	> 15	86.6	> 35	> 83.3	0.018							
CC[C@H](C)[C@H](NC(=O)CNC(=O)[C@H](Cc1ccc(O)cc1)NC(=O)[C@H](CC(C)C)NC(=O)[C@H](CO)NC(=O)[C@H](CC(C)C)NC(=O)[C@H](CC(C)C)NC(=O)[C@H](CO)NC(=O)[C@H](CC(C)C)NC(=O)[C@H](CCC(=O)O)NC(=O)[C@H](CO)NC(=O)[C@@H](N)CC(C)C)C(=O)N[C@@H](Cc1c[nH]cn1)C(=O)N[C@@H](CCCCN)C(=O)N[C@@H](CCC(N)=O)C(=O)O	1.66	1.55	> 81.8	0.045	0.079	0.0073	> 13	1.45		20.9	0.482							
GAPLGGALRALAHGV		15	> 486				> 51.1					0.083	0.34	2.07	1.42	4.89	0.068	5.4
RNFYVINRLTGYLRN	0.055	0.219	2.2	0.018		0.0056	0.689	7.6	0.0094	0.527	0.0017							
CSCC[C@H](NC(=O)[C@@H]1CCCN1C(=O)[C@H](CC(=O)O)NC(=O)[C@@H](N)Cc1ccc(O)cc1)C(=O)N[C@@H](Cc1ccccc1)C(=O)N[C@@H](CCCCN)C(=O)N[C@@H](Cc1ccc(O)cc1)C(=O)N[C@@H](Cc1c[nH]cn1)C(=O)N[C@@H](CC(C)C)C(=O)N[C@H](C(=O)N[C@H](C(=O)N[C@@H](C)C(=O)N[C@@H](CCC(N)=O)C(=O)N[C@H](C(=O)N[C@@H](CCCNC(=N)N)C(=O)O)C(C)C)C(C)C)[C@@H](C)O	0.252	0.019	> 75	1.35	0.553	0.062	8.14		1.01	0.158	0.009							
CC[C@H](C)[C@H](NC(=O)[C@H](Cc1c[nH]cn1)NC(=O)[C@H](CCSC)NC(=O)[C@H](CCCCN)NC(=O)[C@@H](NC(=O)[C@H](CCCCN)NC(=O)[C@H](CCC(N)=O)NC(=O)[C@@H](NC(=O)[C@H](CO)NC(=O)[C@H](Cc1ccccc1)NC(=O)[C@H](CC(N)=O)NC(=O)CNC(=O)[C@@H](N)[C@@H](C)O)[C@@H](C)O)C(C)C)C(=O)N[C@@H](Cc1c[nH]cn1)C(=O)N[C@@H](CO)C(=O)O	11.9				0.508	1.93	> 11.8	1.45	6.19	9.41	11.2							
CC[C@H](C)[C@H](NC(=O)[C@H](Cc1c[nH]c2ccccc12)NC(=O)[C@@H](NC(=O)[C@@H](N)C(C)C)[C@@H](C)O)C(=O)NCC(=O)N[C@@H](C)C(=O)N[C@@H](C)C(=O)N1CCC[C@H]1C(=O)N[C@@H](CC(C)C)C(=O)N[C@H](C(=O)N[C@@H](CC(C)C)C(=O)N[C@@H](CO)C(=O)N[C@@H](CCCNC(=N)N)C(=O)N[C@H](C(=O)N[C@H](C(=O)O)C(C)C)[C@@H](C)CC)[C@@H](C)CC	1.78	8	> 81.8		0.088		> 10.7	0.082	2.34	0.195	0.0081							
CC(C)C[C@H](NC(=O)CNC(=O)[C@H](CC(N)=O)NC(=O)[C@H](Cc1ccc(O)cc1)NC(=O)[C@@H](NC(=O)[C@H](CC(=O)O)NC(=O)[C@@H](N)CC(C)C)C(C)C)C(=O)N[C@@H](CC(C)C)C(=O)N1CCC[C@H]1C(=O)N1CCC[C@H]1C(=O)N[C@@H](Cc1ccc(O)cc1)C(=O)N[C@@H](C)C(=O)N[C@@H](CO)C(=O)N[C@@H](CS)C(=O)N[C@@H](Cc1c[nH]cn1)C(=O)O		0.348		3.03	> 10.9	25.8	> 15	31.3	> 35	> 83.3	0.015							
LLYTFRKDMDKVETF	7.9	10.6	23.9	0.886			0.941	> 59.5	> 14.5	53.4	> 18							
CC[C@H](C)[C@H](NC(=O)[C@H](CC(N)=O)NC(=O)[C@H](CCC(=O)O)NC(=O)[C@H](C)NC(=O)[C@H](CCCCN)NC(=O)[C@H](CC(C)C)NC(=O)[C@H](CCC(=O)O)NC(=O)[C@H](CC(=O)O)NC(=O)[C@@H](N)CC(C)C)C(=O)N[C@@H](CCCCN)C(=O)N[C@@H](CCCCN)C(=O)N[C@@H](Cc1ccccc1)C(=O)N[C@@H](CC(C)C)C(=O)N[C@@H](Cc1ccc(O)cc1)C(=O)N[C@@H](CC(N)=O)C(=O)O	0.324	4.84			0.788	0.15	0.548	12.8		7.47	1.14							
